In PMC10974533, “Cationicity Enhancement on the Hydrophilic Face of Ctriporin Significantly Reduces Its Hemolytic Activity and Improves the Antimicrobial Activity against Antibiotic-Resistant ESKAPE Pathogens” (Toxins, 2024):
Where a SMILES comes first, the peptide text is derived from it.

Key:
Assay type in all cases: cell-based
E. coli ATCC35218 = assay: MIC, broth dilution, standard strain; conditions: broth dilution (CLSI), MHB, 5 × 10^5 CFU/mL, 37 °C, 16–20 h, OD630, repeated at least three times
Protocol: (§1) The standard strains, including S. aureus ATCC29213 and ATCC25923, E. faecalis ATCC29212, E. coli ATCC25922 and ATCC35218, A. baumannii ATCC19606, K. pneumoniae ATCC700603, and P. aeruginosa ATCC27853, were purchased from the China Center of Type Culture Collection (CCTCC). The clinical strains of the ESKAPE pathogens were isolated from the affiliated hospitals of Hubei University of Medicine. All of them were stored at −80 °C before use. The drug sensitivities of the clinical strains were determined by the Kirby–Bauer test.
(§2) The MICs were determined using the broth dilution method according to the guidelines of the Clinical and Laboratory Standards Institute (CLSI), as described in the previous studies. Briefly, the bacterial cells were incubated in Mueller–Hinton broth (MHB, Oxoid, Basingstoke, UK) at 37 °C and 150 rpm to the mid-growth phase and diluted to achieve a final concentration of 5 × 10^5 colony-forming units per milliliter (CFU/mL). Then, the cells were mixed with each peptide in different concentrations (1, 2, 4, 8, 16, 32, and 64 μg/mL). […] All experiments were repeated at least three times.

E. faecium ATCC29212 = assay: MIC, broth dilution, standard strain; conditions: broth dilution (CLSI), MHB, 5 × 10^5 CFU/mL, 37 °C, 16–20 h, OD630, repeated at least three times
Protocol: as §1, §2

P. aeruginosa ATCC27853 = assay: MIC, broth dilution, standard strain; conditions: broth dilution (CLSI), MHB, 5 × 10^5 CFU/mL, 37 °C, 16–20 h, OD630, repeated at least three times
Protocol: as §1, §2

E. coli ATCC25922 = assay: MIC, broth dilution, standard strain; conditions: broth dilution (CLSI), MHB, 5 × 10^5 CFU/mL, 37 °C, 16–20 h, OD630, repeated at least three times
Protocol: as §1, §2

A. baumannii ATCC19606 = assay: MIC, broth dilution, standard strain; conditions: broth dilution (CLSI), MHB, 5 × 10^5 CFU/mL, 37 °C, 16–20 h, OD630, repeated at least three times
Protocol: as §1, §2

S. aureus ATCC25923 = assay: MIC, broth dilution, standard strain; conditions: broth dilution (CLSI), MHB, 5 × 10^5 CFU/mL, 37 °C, 16–20 h, OD630, repeated at least three times
Protocol: as §1, §2

S. aureus ATCC29213 = assay: MIC, broth dilution, standard strain; conditions: broth dilution (CLSI), MHB, 5 × 10^5 CFU/mL, 37 °C, 16–20 h, OD630, repeated at least three times
Protocol: as §1, §2

K. pneumoniae ATCC700603 = assay: MIC, broth dilution, standard strain; conditions: broth dilution (CLSI), MHB, 5 × 10^5 CFU/mL, 37 °C, 16–20 h, OD630, repeated at least three times
Protocol: as §1, §2

[1] = tested on: human red blood cells (hRBC); assay: Hemolytic activity determination; conditions: 2% (v/v) hRBC, 37 °C, 1 h; for curve of hemolysis% vs. peptide concentration (Figure 2): 0–512 μg/mL peptide, compared in words; for Hemolysis% at 256 μg/mL: 256 μg/mL peptide, OD540, 1% Triton X-100 = 100%, average ± standard error of three independent experiments
Protocol: Figure 2 Hemolytic activities of Ctriporin and its analogs against human red blood cells (hRBC). Hemolytic activities of Ctriporin (solid circle), CM1 (open circle), CM2 (open square), CM3 (upward triangle), CM4 (downward triangle), CM5 (half solid circle), CM6 (half solid square), and CM7 (half solid triangle), were measured against 2% (v/v) human red blood cells. The peptide concentrations are 0, 2, 4, 8, 16, 32, 64, 128, 256, and 512 μg/mL. The cells treated with 1% Triton X-100 were treated as 100% hemolysis. All experiments were repeated three times, and the data shown are the average ± standard error.
The hemolytic activities of the peptides were determined against human red blood cells (hRBCs). As described, sodium citrate-anticoagulated hRBCs were washed three times with 0.9% sodium chloride and diluted to a final concentration of 4% (v/v). Then, an equal volume of hRBC solutions was mixed with an equal volume of each peptide in a series of concentrations (0, 2, 4, 8, 16, 32, 64, 128, 256, and 512 μg/mL). After co-incubation at 37 °C for 1 h, the degree of hemolysis of the peptides was determined by detecting the release of hemoglobin from the damaged hRBCs by measuring the optical density at 540 nm (OD540). hRBCs in 0.9% sodium chloride and 1% Triton X-100 were considered 0% and 100% hemolysis, respectively. The results shown are the average ± standard error of data derived from three independent experiments. The percent hemolysis was calculated according to the following equation [53, 54]:Hemolysis (%) = 100 × (Asample − Ablank)/(Apositive − Ablank)

standard ESKAPE strains = conditions: broth dilution (CLSI), MHB, 37 °C, 16–20 h; range over all standard strains
Protocol: The ESKAPE pathogens represent the main threat to public health concerning antimicrobial resistance. Therefore, we first evaluated the antimicrobial activities of Ctriporin and its analogs against the standard ESKAPE strains. The minimum inhibitory concentration (MIC) was chosen as the index for the evaluation of each peptide’s activity. […] Note that the MICs of CM4 and CM7 are 4–32 and 8–32 μg/mL, respectively, indicating the existence of significant bacterial species deviations for the antimicrobial activity of these peptides. In addition, the replacement of specific residues, especially Pro^7, may harm the antimicrobial activities of the peptide.
as §1, §2

[2] = tested on: clinical isolates of CRE and multidrug-resistant (MDR) A. baumannii; conditions: broth dilution (CLSI), MHB
Protocol: To further evaluate the antimicrobial potential of CM5 and CM6, the MICs of these two peptides, as well as the parent peptide Ctriporin, were determined against clinical antibiotic-resistant isolates of ESKAPE strains. […] Note that CRE and MDR A. baumannii are listed at the top of the pathogens threatening public health. Compared with the parent peptide Ctriporin, eight to sixteen times improvement in terms of antimicrobial activity was obtained through our peptide design strategy.
as §2

A. baumannii 19618 = assay: MIC, broth dilution, clinical isolate; conditions: CRE/MDR clinical isolate; broth dilution (CLSI), MHB, 5 × 10^5 CFU/mL, 37 °C, 16–20 h, OD630
Protocol: as §1, §2

S. capitis 3255 = assay: MIC, broth dilution, clinical isolate; conditions: MRSC clinical isolate; broth dilution (CLSI), MHB, 5 × 10^5 CFU/mL, 37 °C, 16–20 h, OD630
Protocol: as §1, §2

S. aureus 9124 = assay: MIC, broth dilution, clinical isolate; conditions: MRSA clinical isolate; broth dilution (CLSI), MHB, 5 × 10^5 CFU/mL, 37 °C, 16–20 h, OD630
Protocol: as §1, §2

E. coli 2678 = assay: MIC, broth dilution, clinical isolate; conditions: ESBL clinical isolate; broth dilution (CLSI), MHB, 5 × 10^5 CFU/mL, 37 °C, 16–20 h, OD630
Protocol: as §1, §2

S. epidermidis 9092 = assay: MIC, broth dilution, clinical isolate; conditions: MRSE clinical isolate; broth dilution (CLSI), MHB, 5 × 10^5 CFU/mL, 37 °C, 16–20 h, OD630
Protocol: as §1, §2

K. pneumoniae 9126 = assay: MIC, broth dilution, clinical isolate; conditions: CRE clinical isolate; broth dilution (CLSI), MHB, 5 × 10^5 CFU/mL, 37 °C, 16–20 h, OD630
Protocol: as §1, §2

E. coli 2687 = assay: MIC, broth dilution, clinical isolate; conditions: ESBL clinical isolate; broth dilution (CLSI), MHB, 5 × 10^5 CFU/mL, 37 °C, 16–20 h, OD630
Protocol: as §1, §2

P. aeruginosa 9014 = assay: MIC, broth dilution, clinical isolate; conditions: CRE/MDR clinical isolate; broth dilution (CLSI), MHB, 5 × 10^5 CFU/mL, 37 °C, 16–20 h, OD630
Protocol: as §1, §2

E. faecium 898 = assay: MIC, broth dilution, clinical isolate; conditions: MDR clinical isolate; broth dilution (CLSI), MHB, 5 × 10^5 CFU/mL, 37 °C, 16–20 h, OD630
Protocol: as §1, §2

A. baumannii 19295 = assay: MIC, broth dilution, clinical isolate; conditions: CRE/MDR clinical isolate; broth dilution (CLSI), MHB, 5 × 10^5 CFU/mL, 37 °C, 16–20 h, OD630
Protocol: as §1, §2

S. epidermidis 6943 = assay: MIC, broth dilution, clinical isolate; conditions: MRSE clinical isolate; broth dilution (CLSI), MHB, 5 × 10^5 CFU/mL, 37 °C, 16–20 h, OD630
Protocol: as §1, §2

S. aureus 891 = assay: MIC, broth dilution, clinical isolate; conditions: MRSA clinical isolate; broth dilution (CLSI), MHB, 5 × 10^5 CFU/mL, 37 °C, 16–20 h, OD630
Protocol: as §1, §2

A. baumannii 19462 = assay: MIC, broth dilution, clinical isolate; conditions: CRE/MDR clinical isolate; broth dilution (CLSI), MHB, 5 × 10^5 CFU/mL, 37 °C, 16–20 h, OD630
Protocol: as §1, §2

CC[C@H](C)[C@H](NC(=O)[C@H](C)NC(=O)[C@H](CCCCN)NC(=O)[C@@H]1CCCN1C(=O)[C@@H](NC(=O)[C@H](CC(C)C)NC(=O)[C@H](CCCCN)NC(=O)[C@H](Cc1c[nH]c2ccccc12)NC(=O)[C@H](CC(C)C)NC(=O)[C@@H](N)Cc1ccccc1)[C@@H](C)CC)C(=O)N[C@@H](CCCCN)C(=O)N[C@@H](CCCCN)C(=O)N[C@H](C(=O)N[C@@H](CCCCN)C(=O)N[C@@H](CO)C(=O)N[C@@H](CC(C)C)C(=O)N[C@H](C(=O)N[C@@H](CCCCN)C(=O)N[C@@H](CCCCN)C(N)=O)[C@@H](C)CC)C(C)C [CM5] (H-FLWKLIPKAIKKVKSLIKK-NH2)
MICs (E. coli ATCC35218): 4 µg/mL | MICs (E. faecium ATCC29212): 8 µg/mL | MICs (P. aeruginosa ATCC27853): 4 µg/mL | MICs (E. coli ATCC25922): 8 µg/mL | MICs (A. baumannii ATCC19606): 2 µg/mL | MICs (S. aureus ATCC25923): 4 µg/mL | MICs (S. aureus ATCC29213): 4 µg/mL | MICs (K. pneumoniae ATCC700603): 8 µg/mL | curve of hemolysis% vs. peptide concentration (Figure 2) [1]: decreased dramatically compared with Ctriporin | Hemolysis% at 256 μg/mL [1]: 9.8 ± 0.6% | MICs against the ESKAPE pathogens (range over the standard strains of Table 2) (standard ESKAPE strains): 2 to 8 µg/mL | MIC values against clinical isolates of CRE and MDR A. baumannii [2]: 2 µg/mL | MICs (A. baumannii 19618): 2 µg/mL | MICs (S. capitis 3255): 2 µg/mL | MICs (S. aureus 9124): 8 µg/mL | MICs (E. coli 2678): 8 µg/mL | MICs (S. epidermidis 9092): 4 µg/mL | MICs (K. pneumoniae 9126): 16 µg/mL | MICs (E. coli 2687): 8 µg/mL | MICs (P. aeruginosa 9014): 8 µg/mL | MICs (E. faecium 898): 4 µg/mL | MICs (A. baumannii 19295): 2 µg/mL | MICs (S. epidermidis 6943): 4 µg/mL | MICs (S. aureus 891): 4 µg/mL | MICs (A. baumannii 19462): 2 µg/mL

CC[C@H](C)[C@H](NC(=O)[C@H](C)NC(=O)[C@H](CCCCN)NC(=O)[C@@H]1CCCN1C(=O)[C@@H](NC(=O)[C@H](CC(C)C)NC(=O)[C@H](CCCCN)NC(=O)[C@H](Cc1c[nH]c2ccccc12)NC(=O)[C@H](CC(C)C)NC(=O)[C@@H](N)Cc1ccccc1)[C@@H](C)CC)C(=O)N[C@@H](CCCCN)C(=O)N[C@@H](CCCCN)C(=O)N[C@H](C(=O)N[C@@H](CCCCN)C(=O)N[C@@H](CCCCN)C(=O)N[C@@H](CC(C)C)C(=O)N[C@H](C(=O)N[C@@H](CCCCN)C(=O)N[C@@H](CCCCN)C(N)=O)[C@@H](C)CC)C(C)C [CM6] (H-FLWKLIPKAIKKVKKLIKK-NH2)
MICs (E. coli ATCC35218): 8 µg/mL | MICs (E. faecium ATCC29212): 8 µg/mL | MICs (P. aeruginosa ATCC27853): 4 µg/mL | MICs (E. coli ATCC25922): 8 µg/mL | MICs (A. baumannii ATCC19606): 4 µg/mL | MICs (S. aureus ATCC25923): 8 µg/mL | MICs (S. aureus ATCC29213): 8 µg/mL | MICs (K. pneumoniae ATCC700603): 8 µg/mL | curve of hemolysis% vs. peptide concentration (Figure 2) [1]: decreased dramatically compared with Ctriporin | Hemolysis% at 256 μg/mL [1]: 8.1 ± 1.9% | MICs against the ESKAPE pathogens (range over the standard strains of Table 2) (standard ESKAPE strains): 4 to 8 µg/mL | MIC values against clinical isolates of CRE and MDR A. baumannii [2]: 2 µg/mL | MICs (A. baumannii 19618): 2 µg/mL | MICs (S. capitis 3255): 2 µg/mL | MICs (S. aureus 9124): 8 µg/mL | MICs (E. coli 2678): 8 µg/mL | MICs (S. epidermidis 9092): 4 µg/mL | MICs (K. pneumoniae 9126): 16 µg/mL | MICs (E. coli 2687): 8 µg/mL | MICs (P. aeruginosa 9014): 8 µg/mL | MICs (E. faecium 898): 4 µg/mL | MICs (A. baumannii 19295): 2 µg/mL | MICs (S. epidermidis 6943): 4 µg/mL | MICs (S. aureus 891): 8 µg/mL | MICs (A. baumannii 19462): 2 µg/mL
